Results on three compounds are retold here after US20110318431A1, “Pharmaceutical Compositions and Methods of Treating Neurological Insults” (ENDOGENX, priority 2008, published 2011).

Entries after “also recorded” stand apart in the source; their conditions may differ. Where two headings read alike, the source gives them in different places. A value given as a limit tells only on which side of the number the result lay.

The nature of series [1]: Clinical study in patients with infarct: Glasgow outcome scale, Barthel Index, Modified Rankin Score. The class given is in vivo, human.
Series [2] in a line: Evaluation of therapy for side effects of magnesium sulfate with and without mannitol treatment. The method, then:
Safety—safety of subjects was maintained at all times. Adverse events and clinical laboratory data were obtained. Serious and non-serious adverse effects and clinical laboratory data were compared between groups.
Group 1. Magnesium sulfate 16 gm a day (4 vials each of 1 gm of magnesium sulfate mixed with 100 ml normal saline was infused 6 hourly for five days)
Group 3. Magnesium sulfate 8 gm a day plus mannitol (2 vials each of 1 gm of magnesium sulfate mixed with 50 ml normal saline was infused 6 hourly for five days; in addition 100 ml of 20% mannitol once a day with first dose of magnesium sulfate was administered)
Evaluation of therapy for side effects of magnesium sulfate with and without mannitol treatment

The conditions of series [3]: 16 mmol bolus and 65 mmol continuous infusion over 24 hrs; cited from earlier work.
For series [4] the following is noted: cited from earlier work.
For series [5] the following is noted: cited from earlier work. This is another data set of the same source.
For series [6] the following is noted: cited from earlier work. This is another data set of the same source.
The conditions of series [7]: pediatric TBI patients; 50 mg/kg IV then 8.3 mg/kg/hour for 24 hours; cited from earlier work.
For series [8] the following is noted: cited from earlier work. This is another data set of the same source.
For series [9] the following is noted: end of 24 hour infusion, cited from earlier work.
For series [10] the following is noted: at the end of three months; 4 g IV and 10 g IM within 12 hours of injury, then 5 g IM every 4 hours for 24 hours; cited from earlier work.
The conditions of series [11]: magnesium therapy; cited from earlier work.
For series [12] the following is noted: cited from earlier work. This is another data set of the same source.
The conditions of series [13]: after one month of follow up; loading dose 16 mM then 6 mM/hour for 5 days IV; cited from earlier work.
The conditions of series [14]: cited from earlier work. This is another data set of the same source.
The conditions of series [15]: 283 patients with aneurysmal subarachnoid hemorrhage; cited from earlier work.
Where [16] appears, read: number out of total 15 patients, magnesium sulfate 16 gm a day, five days.

On to `O=S(=O)([O-])[O-].[Mg+2]` [magnesium sulfate], for which, in series [1] (magnesium sulfate 16 gm a day for five days), the “Patient outcome, magnesium sulfate (16 gm) group compared to mannitol group” value was “improved”. Moreover, in series [1] (patients with cerebrovascular accidents), the “Effectiveness of magnesium sulfate (16 gm) versus magnesium sulfate (8 gm) plus mannitol” value is “equally effective”. Moreover, the “Incidence of side effects, magnesium sulfate (16 gm) alone compared to magnesium sulfate (8 gm) plus mannitol” value in series [2] (five days treatment) is reported as “greater; also recorded: higher”. In series [2] (setting [16]), the Constipation was 4, the Facial flushing was determined as 8, the Heart block stood at 3 and the Hypotension is given as 3. In series [2] (setting [16]), this compound yielded a Nausea of 5, a Paradoxical bradycardia of 3 and a Respiratory distress of 2. In series [3], the Mortality versus placebo result was “slightly higher” and the Primary outcome is “not improved”. For the same compound, the “Patients with good functional outcome” value in series [4] (at 3 months) is recorded as 60%. Besides, the “Patient status on hospital arrival rated improved” value in series [4] (rated by paramedics, 10 mmol bolus and 64 mmol infusion over 24 hrs) was 20%. In addition, in [4] (rated by paramedics), the “Patient status on hospital arrival rated unchanged” value is 75% and the “Patient status on hospital arrival rated worsened” value is 5%.
On to `OC[C@@H](O)[C@@H](O)[C@H](O)[C@H](O)CO` [mannitol, D-mannitol], for which the “Effectiveness of mannitol compared to control” value in series [1] (100 ml 20% mannitol once a day for five days) was “not effective compared to control”. Besides, in series [1] (100 ml 20% mannitol once a day for five days, day 1, day 5, day 15, day 30), the “Glasgow outcome scale (GOS), Barthel Index (BI) and Modified Rankin Score (MRS), mannitol group versus control group” value is listed as “similar”. Besides, in series [1] (day 5, day 15, day 30), the “Barthel Index (BI) and Modified Rankin Score (MRS), mannitol group compared to magnesium sulfate (8 gm) plus mannitol group” value was “significantly higher”; the “Barthel Index (BI) and Modified Rankin Score (MRS), mannitol group compared to magnesium sulfate (16 gm) group” value is “significantly higher”; the “Glasgow outcome scale (GOS), mannitol group compared to magnesium sulfate (8 gm) plus mannitol group” value was “significantly lower”; the “Glasgow outcome scale (GOS), mannitol group compared to magnesium sulfate (16 gm) group” value was “significantly lower”. For the same compound, the Half life in series [5] (humans with normal renal function) is 1.2 h. Also, in series [5] (humans), the “Osmolal gap corresponding to renal toxicity” value is > 55 mosm/kg of water and the “Serum mannitol concentration at which renal toxicity / acute renal failure occurs” value was more than 1000 mg/dL. Besides, the Half life in series [5] (uremia patients) was 36 h. For the same compound, in series [6] (massive mannitol infusion to 4 male adults), the “Mortality with acute renal failure” value is given as 2/4. For the same compound, in series [6] (massive mannitol infusion, Mean+SD), the “Onset of acute renal failure after infusion” value is 48 ± 22 h.
With `[Mg]` [magnesium], in [7], the Adverse hemodynamic effects entry is reported as “No adverse hemodynamic effects were observed”. In addition, the “Composite primary outcome at 6 months post-injury” value in series [8] (administration within 8 hours of moderate to severe TBI for 5 days, continuous infusion) is “did not show any beneficial effects”. The Mortality entry in series [8] (high dose of magnesium) is given as “Significantly higher mortality”. In addition, in series [8] (lower dose of magnesium), the “Composite score versus placebo” value is given as “worse than the placebo treated patients”. In [9], the “CSF ionized magnesium increase relative to baseline” value was 11% and the “CSF total magnesium increase relative to baseline” value is 15%. Besides, in series [9] (dose adjusted to serum 2.1-2.5 mM/L), the “Serum magnesium concentrations relative to baseline” value is recorded as “doubled from baseline”. Also, the “Patients with favorable outcome including reduced mortality and intra-operative brain swelling” value in [10] was 73%. Besides, the “Outcome at six months” value in series [11] is “failed to provide a favorable outcome”. The Serum magnesium level in [12] (over 24 hours, 8 mmol over 15 minutes followed by 65 mmol over 24 hours IV, rose from 0.76 mM/L) is on record as 1.42 mM/L. Moreover, in series [12] (stroke patients), the “Blood pressure or adverse events versus placebo-treated patients” value is reported as “No differences”. In addition, the “Patient outcome, outcome scales (Orgogozo, Mathew, Rankin)” value in [13] is listed as “significant positive effect”. Besides, in series [14] (16 mmol loading infusion), the “Target serum concentrations achieved” value is listed as 1.49 mmol/L. In addition, the “Effects on heart rate, blood pressure, or blood glucose” value in series [14] (loading dose 8, 12 or 16 mM followed by 65 mM infusion over 24 hours) was “no obvious effects”. Besides, in series [15], the “Delayed cerebral ischemia and subsequent poor outcome” value is recorded as “reduced”.
